Like-named read-outs stand apart in the source and are kept apart here. Blank lines part the entries; values can stand above or below the molecule they belong to.
Tests used:
MCF-7 = assay: SRB cell viability/antiproliferative assay, MCF-7; conditions: Homo sapiens, MCF7, 48 h
PAMPA—BBB = assay type: in vitro ADME; parameters: key to Classification BBB: permeable (CNS+); non-permeable (CNS−)
Method: (§1) To obtain information on the permeability potential of LASSBio-2208 on cell membranes, this derivative was tested using the parallel artificial membrane permeability assay (PAMPA) that is used as an in vitro model of passive diffusion and transcellular permeation. In this model, the permeability across two artificial membranes is measured: brain lipid from pig extract in dodecane (called PAMPA—BBB) and L-α soy phosphatidylcholine in dodecane (called PAMPA—TGI).
(§2) To perform the permeability assay we used a donor plate where the compounds (tests or controls) are diluted in a buffered medium, characterized by the presence of a synthetic membrane of polyvinylidene fluoride (PVDF) impregnated with a lipid solution, forming a barrier through which the compounds migrate through a diffusion process to the lower plate called the receptor.
(§3) The lipid mixture that impregnates the filter has a different constitution for the permeability tests for the blood–brain barrier (brain lipid from pig extract in dodecane) and gastrointestinal tract (L-α soy phosphatidylcholine in dodecane). In the PAMPA—BBB and PAMPA—GIT assays, the optical density values obtained in the reading at each selected wavelength, for each of the compounds were analysed in comparison with the values of several controls. In the case of the BBB, these values were used to elaborate an equation and determine the permeability coefficient (Pe), using a previously elaborated spreadsheet, and, for the PAMPA—GIT, these values were used to determine the absorbed fraction (Fa%), both using the Excel program. The permeability result for PAMPA—GIT classifies the compounds according to the percentage of absorbed fraction (Fa%), as follows: high intestinal permeability (70–100%), medium permeability (30–69%) or low permeability (0–29%), and the samples were diluted from a stock solution of 10 mM. The PAMPA—BBB model classifies the compounds only as follows: permeable (CNS+) or non-permeable (CNS−) and the assays were made from a stock solution of 1 mg for each compound [25, 40, 41, 42].

PAMPA—GIT = assay type: in vitro ADME; conditions: for Papp: PAMPA, read-out: Pe. Exp. GIT; for Classification GIT: by fraction absorbed
Method: as §1, §2, §3

[1] = system: human prostate cancer cell line (PC-3); parameters: method as in PMID 37259357; conditions: cited from earlier work
PC-3 = assay: SRB cell viability/antiproliferative assay, PC-3; conditions: for Emax: SRB 48 h, PC-3, maximum effect at maximum concentration used
[2] = system: breast cancer cell line (MCF-7); parameters: method as in PMID 37259357; conditions: cited from earlier work
[3] = system: T lymphoblast cell line (MOLT-4); parameters: method as in PMID 37259357; conditions: cited from earlier work
[4] = system: human leukaemia cell line (CCRF-CEM); assay: MTT cell viability assay, CCRF-CEM
Method: (§8) After the incubation time, the plate was centrifuged (Universal centrifuge 320R Hettich, Kirchlengern, Germany) at 440× g, 10 min and 4 °C, then 110 µL of supernatant was removed and 10 µL of MTT solution was added and left to incubate for 3.5 h in the oven at 37 °C and 5% CO2. […] The CC50 was calculated using the GraphPad Prism 9.0 program. Each sample was tested in triplicate in three independent experiments (N3) [32, 33].

[5] = system: breast cancer cell line (MCF-7); assay: MTT cell viability assay, MCF-7
Method: as §8

[6] = Non-specific microsome protein binding; assay type: in vitro ADME; conditions: rat, pH 7.4; liver microsomes 0.5 mg protein/mL, 37 °C, 60 min; read-out: Percentage of ƒu(mic) (unbound fraction in nonspecific microsomal binding)
Method: Once such bonds are formed, the bound fraction would become incapable of being metabolized.
Liver microsomes were diluted with PBS pH 7.4 to a concentration of 0.5 mg protein/mL and 3 µL at 1 mM of the working test compound and solutions were mixed with 357 µL of liver microsome suspension. After mixing, duplicate 200 µL aliquots were immediately removed, while another microtubule acted as the control sample (T 0 h), and were quenched with 400 µL of cold acetonitrile containing analytical internal standards. The other samples were incubated at 37 °C at 100 rpm, for 60 min with the same subsequent treatment.

MOLT-4 = assay: SRB cell viability/antiproliferative assay, MOLT-4; conditions: Homo sapiens, MOLT-4, 48 h
[7] = system: T lymphoblast cell line (MOLT-4); assay: MTT cell viability assay, MOLT-4; conditions: Homo sapiens
Method: as §8

[8] = system: human prostate cancer cell line (PC-3); assay: MTT cell viability assay, PC-3; parameters: Emax: dose or concentration left out as unconfirmed
Method: as §8

[9] = system: human leukaemia cell line (CCRF-CEM); parameters: method as in PMID 37259357; conditions: cited from earlier work
CCRF-CEM = assay: SRB cell viability/antiproliferative assay, CCRF-CEM; conditions: Homo sapiens, 48 h
[10] = PBMC viability assay by MTT; assay type: cell-based, human; conditions: MTT 48 h, non-tumour human PBMC
Method: (§4) The SI indicates how selective a compound is for a tumour cell line compared with a non-tumour cell line.
(§5) Human peripheral blood mononuclear cells (PBMCs) were used to determine the selectivity index (SI) and were obtained from healthy volunteers under a protocol approved by the Ethics Committee CAAE: 38257914.7.0000.5259. Immortalized cells were also obtained from the Rio de Janeiro Cell Bank (BCRJ).
(§6) First, 8 mL of blood from each healthy donor (3 people) was collected in a tube with EDTA in a 1:20 ratio to prevent the blood from clotting. In a 15 mL Falcon tube containing 4 mL of Ficoll-Paque, the 8 mL of blood collected was slowly added, letting it fall down the walls of the tube. It was centrifuged (Universal Centrifuge 320R Hettich) for 40 min at 750× g at 21 °C with acceleration 1 and brake 0. After centrifugation, in order to extract the ring of mononuclear cells, the supernatant above it was first carefully discarded so as not to disturb the ring. The ring was then slowly removed and placed in another 15 mL Falcon tube to which pure RPMI-1640 medium was added in a 1:1 ratio and centrifuged for 10 min at 580× g and 21 °C with acceleration 8 and brake 9 [34, 35].
(§7) The supernatant was discarded, and the pellet was resuspended in 1 mL of RPMI-1640 medium supplemented with 10% SBF and 1% antibiotic. An amount of 20 µL of cells were taken from the mixture and added to 380 µL of trypan blue dye for counting in the Neubauer chamber. Considering that 80% of PBMCs are lymphocytes and the rest are monocytes, the cells were plated with the aim of having 10^5 cell/well.

[11] = system: human peripheral blood mononuclear cells (hPBMC); assay: PBMC viability assay by MTT; assay type: cell-based; conditions: MTT 48 h, human PBMC; maximum cytotoxic response at 100 µM
Method: as §4, §5, §6, §7

SMILES: CN(C)C1CCN(C(=O)c2ccc(NC(=O)Nc3ccc(-c4nc(N5CCOCC5)nc(N5CCOCC5)n4)cc3)cc2)CC1 [Gedatolisib, gedatolisib]
CC50 (MCF-7): 0.03 µM
Emax (MCF-7): 95.7%
Classification BBB (PAMPA—BBB): Insoluble
Pe. Exp. BBB (PAMPA—BBB): Insoluble
Pe. Exp. BBB (PAMPA—BBB; listed as gedatolisib): insoluble
Fraction Absorbed (PAMPA—GIT): 48.4%
Papp (PAMPA—GIT): 1.74 ×10⁻⁶ cm/s
CC50 [1]: 0.54 µM
CC50 (PC-3; Homo sapiens, PC-3, 48 h): 6.16 µM
Emax (PC-3; Homo sapiens, PC-3, 48 h): > 50%
CC50 [2]: 0.07 µM
CC50 [3]: 0.02 µM
CC50 ([4]; 24 h): 0.31 µM
Emax ([4]; 24 h): 98.6%
CC50 ([4]; 48 h): 0.085 µM
Emax ([4]; 48 h): 99.5%
CC50 ([4]; 72 h): 0.09 µM
Emax ([4]; 72 h): 100%
CC50 ([5]; Homo sapiens, MCF7, 24 h): 5.04 µM
Emax ([5]; Homo sapiens, MCF7, 24 h): 79.9%
CC50 ([5]; Homo sapiens, MCF7, 48 h): 0.21 µM
Emax ([5]; Homo sapiens, MCF7, 48 h): 96.8%
CC50 ([5]; Homo sapiens, MCF7, 72 h): 0.06 µM
fraction unbound at 60 min, 8.3 µM [6]: 0.503
CC50 (MOLT-4): 3.68 µM
Emax (MOLT-4): 69.2%
CC50 ([7]; MOLT-4, 24 h): 0.35 µM
Emax ([7]; MOLT-4, 24 h): 97.2%
CC50 ([7]; MOLT-4, 48 h): 0.08 µM
Emax ([7]; MOLT-4, 48 h): 99.3%
CC50 ([7]; MOLT-4, 72 h): 0.07 µM
CC50 ([8]; Homo sapiens, 24 h): > 100 µM
Emax ([8]; Homo sapiens, 24 h): 48%
CC50 ([8]; Homo sapiens, 48 h): 5.05 µM
Emax ([8]; Homo sapiens, 48 h): 60.5%
CC50 ([8]; Homo sapiens, 72 h): 0.86 µM
Emax ([8]; Homo sapiens, 72 h): 81.1%
CC50 [9]: 0.03 µM
CC50 (CCRF-CEM): 0.78 µM
Emax (CCRF-CEM): 66.2%

Classification BBB (PAMPA—BBB): CNS+
Papp (PAMPA—BBB; read-out: Pe. Exp. BBB): 5.54 ×10⁻⁶ cm/s
Fraction Absorbed (PAMPA—GIT): 52.93%
Papp (PAMPA—GIT): 1.98 ×10⁻⁶ cm/s
Classification GIT (PAMPA—GIT): Medium (medium permeability (30–69%))
Classification GIT (PAMPA—GIT; listed as tubastatin A): medium
Fraction Absorbed (PAMPA—GIT; listed as tubastatin A): 52.9%
fraction unbound at 60 min, 8.3 µM [6]: 0.131
SMILES: CN1CCc2c(c3ccccc3n2Cc2ccc(C(=O)NO)cc2)C1 [Tubastatin A, tubastatin A]
CC50 (MCF-7): 66 µM
Emax (MCF-7; SRB 48 h, MCF-7, maximum effect at maximum concentration used): > 70%
CC50 (PC-3; Homo sapiens, PC-3, 48 h): > 100 µM
Emax (PC-3; Homo sapiens, PC-3, 48 h): < 35%
Emax (PC-3): 39.3%
CC50 at 48 h [10]: 85.7 µM
Emax [11]: 58.2%
CC50 ([4]; 24 h): 12.5 µM
Emax ([4]; 24 h): 95.8%
CC50 ([4]; 48 h): 9.38 µM
Emax ([4]; 48 h): 99.1%
CC50 ([4]; 72 h): 7.11 µM
Emax ([4]; 72 h): 99.3%
CC50 ([5]; Homo sapiens, MCF7, 24 h): > 100 µM
Emax ([5]; Homo sapiens, MCF7, 24 h): 40.1%
CC50 ([5]; Homo sapiens, MCF7, 48 h): > 100 µM
Emax ([5]; Homo sapiens, MCF7, 48 h): 48.2%
CC50 ([5]; Homo sapiens, MCF7, 72 h): 83.6 µM
Emax ([5]; Homo sapiens, MCF7, 72 h): 56.8%
CC50 ([5]; MTT 24 h, MCF-7): did not show any cytotoxic activity
CC50 (MOLT-4): 10.5 µM
Emax (MOLT-4): 54.4%
Emax ([7]; MOLT-4, 24 h): 94.6%
CC50 ([7]; MOLT-4, 48 h): 7.5 µM
Emax ([7]; MOLT-4, 48 h): 98.2%
Emax ([7]; MOLT-4, 72 h): 98.7%
CC50 ([8]; Homo sapiens, 24 h): > 100 µM
Emax ([8]; Homo sapiens, 24 h): 41.8%
CC50 ([8]; Homo sapiens, 48 h): 65.9 µM
Emax ([8]; Homo sapiens, 48 h): 67.8%
CC50 ([8]; Homo sapiens, 72 h): 34.9 µM
Emax ([8]; Homo sapiens, 72 h): 83.6%
CC50 ([8]; MTT 24 h, PC-3): did not show any cytotoxic activity
CC50 (CCRF-CEM): 9.69 µM
Emax (CCRF-CEM): 69.5%

Reference: paper PMC10974272, “Cytotoxic and Antiproliferative Activity of LASSBio-2208 and the Attempts to Determine Its Drug Metabolism and Pharmacokinetics In Vitro Profile” (Pharmaceuticals, 2024)
